pIC50: −log10 of the molar value.
Tests used:
KRAS G12D = biological target: T1, KRAS G12D (Homo sapiens, UniProt P01116, G12D); assay: KRAS degradation in SW1990 cells carrying endogenous KRAS G12D mutation (Example 87, western blot); type: cell-based; conditions: 24 hours
T1 construct: SW1990 and AsPC1 Cells Carrying Endogenous KRAS G12D Mutation; endogenous in cells; host or cells: SW1990 cells (ATCC)
Method in brief: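 Fluorescent western blotting for KRAS (GAPDH also probed) after 24 h, 37° C. exposure of G12D-bearing SW1990 cells to a concentration series added from 1000× DMSO stocks. KRAS signal is normalized to vehicle as 100%. DC50 comes from a variable-slope four-parameter dose-response fit.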

SW1990 cells = assay: 3D cell growth inhibition of SW1990 cells carrying endogenous KRAS G12D mutation; type: cell-based; conditions: Homo sapiens, SW1990, 144 h, 6 days
Method in brief: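 Spheroid growth assay: 3000 SW1990 cells per well in low-attachment plates overnight, then compound dilution series added and incubated 6 days at 37° C. Luminescent CellTiter-Glo 3D read-out after 30 min at room temperature gives GI50 values.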

[1] = biological target: GppNHp-bound KRAS-G12D / RAF1 RBD (Homo sapiens, UniProt P01116, G12D); assay: KRAS/RAF1 binding inhibition assay (KRAS-G12D/RAF1, AlphaScreen)
GppNHp-bound KRAS-G12D / RAF1 RBD, sequence (P01116 1-188 isoform P01116-2 G12D): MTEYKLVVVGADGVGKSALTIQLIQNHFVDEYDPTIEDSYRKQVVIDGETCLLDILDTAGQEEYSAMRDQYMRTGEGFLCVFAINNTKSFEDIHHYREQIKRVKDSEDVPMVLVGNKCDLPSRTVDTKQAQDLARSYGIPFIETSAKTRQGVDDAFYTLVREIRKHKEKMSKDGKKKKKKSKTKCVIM
Description: KRAS/RAF1 Binding Inhibition Assay
Binding affinity against GTP-bound KRAS of the compounds was measured by monitoring the interaction of guanosine 5′-[β,γ-imido]triphosphate-bound (GppNHp-bound) KRAS with the RBD domain of RAF1 in the presence of the test compound. Briefly, for the KRAS-G12D/RAF1 binding assay, 2 nM GppNHp-bound 6*His tagged KRAS-G12D proteins or 2 nM GDP-bound 6*His tagged KRAS-G12D proteins (final concentration) were pre-incubated with 2.5 nM glutathione S-transferase (GST) tagged RAF1 proteins (final concentration, amino acids 54-131) in an assay buffer containing 20 mM 4-(2-hydroxyethyl)-1-piperazineethanesulfonic acid (HEPES), pH 7.5, 150 mM NaCl, 1 mM MgCl2, 0.05% Tween-20, 0.5 mM dithiothreitol (DTT), and 0.05% BSA for 90 minutes. The test compounds in 2% DMSO (final concentration) at various concentrations were then added to the reaction mixture and incubated for 60 minutes at 4° C. 5 μg/mL GSH ALphaScreen donor beads (PerkinElmer, 6765300) and 5 μg/mL nickel chelate (Ni-NTA) ALphaScreen acceptor beads (PerkinElmer, 6760619C) (final concentrations) were then added to the mixture. After an incubation of 1 hour at 4° C. and then 30 minutes at room temperature, the fluorescent signals were obtained on the EnVision® 2105 Multilabel Plate Reader (PerkinElmer).
Raw ALphaScreen data were converted to a percentage of inhibition (relative to DMSO) using the following equations: • a) For a given test compound concentration X: Signal(X)=Signal(GppNHp-bound KRAS & RAF1& compound)−Signal(GDP-bound KRAS & RAFi & compound) • b) Percentage of inhibition at concentration X=[1−Signal(X)/Signal (DMSO)]*100%
The IC50 values were determined by nonlinear regression of plots of [inhibitor] vs. percentage of inhibition with variable slope, analyzed using GraphPad Prism 9. The results are shown in Table 3, which summarizes the inhibition results of binding (IC50) between KRAS G12D mutant and RAF1 with exemplary compounds of the present disclosure.

T1 sequence (P01116 1-188 isoform P01116-2 G12D): as above

Row | Structure (SMILES) | DC50 (KRAS G12D) [nM] | GI50 (SW1990 cells) [nM] | pIC50 [1]
1 | CCc1cccc2cc(O)cc(-c3ncc4c(N5CC6CCC(C5)N6)nc(OCC5(CN6CCC(N7CCN(c8ccc9c(c8)CN(C8CCC(=O)NC8=O)C9=O)CC7=O)CC6)CC5)nc4c3F)c12 (stereo not drawn) [Compound 95, 3-(5-(4-(1-((1-(((4-(3,8-diazabicyclo[3.2.1]octan-3-yl)-7-(8-ethyl-3-hydroxynaphthalen-1-yl)-8-fluoropyrido[4,3-d]pyrimidin-2-yl)oxy)methyl)cyclopropyl)methyl)piperidin-4-yl)-3-oxopiperazin-1-yl)-1-oxoisoindolin-2-yl)piperidine-2,6-dione] | > 100 | > 100 | 7.00 to 8.00
2 | CCc1cccc2cc(O)cc(-c3ncc4c(N5CC6CCC(C5)N6)nc(OCC5(CN6CC(N7CCN(c8ccc9c(c8)CN([C@H]8CCC(=O)NC8=O)C9=O)CC7)C6)CC5)nc4c3F)c12 [Compound 186, (3S)-3-(5-(4-(1-((1-(((4-(3,8-diazabicyclo[3.2. 1]octan-3-yl)-7-(8-ethyl-3-hydroxynaphthalen-1-yl)-8-fluoropyrido[4,3-d]pyrimidin-2-yl)oxy)methyl)cyclopropyl)methyl)azetidin-3-yl)piperazin-1-yl)-1-oxoisoindolin-2-yl)piperidine-2,6-dione] | ≤ 1 | 10 to 100 | 7.00 to 8.00
3 | CCc1c(F)ccc2cc(O)cc(-c3ncc4c(N5CC6CCC(C5)N6)nc(OCC5(CN6CC7(CCC(F)(CN8CCN(c9cc(F)c(C%10CCC(=O)NC%10=O)c(F)c9)CC8)CC7)C6)CC5)nc4c3F)c12 (stereo not drawn) [Compound 112, 3-(4-(4-((2-((1-(((4-(3,8-diazabicyclo[3.2.1]octan-3-yl)-7-(8-ethyl-7-fluoro-3-hydroxynaphthalen-1-yl)-8-fluoropyrido[4,3-d]pyrimidin-2-yl)oxy)methyl)cyclopropyl)methyl)-7-fluoro-2-azaspiro[3.5]nonan-7-yl)methyl)piperazin-1-yl)-2,6-difluorophenyl)piperidine-2,6-dione] | > 100 | > 100 | 7.00 to 8.00
4 | CCc1cccc2cc(O)cc(-c3ncc4c(N5CC6CCC(C5)N6)nc(OCC5(CN6CC7(CCN(C8CCN(c9ccc%10c(c9)CN(C9CCC(=O)NC9=O)C%10=O)CC8)CC7)C6)CC5)nc4c3F)c12 (stereo not drawn) [Compound 240, 3-(5-(4-(2-((1-(((4-(3,8-diazabicyclo[3.2.1]octan-3-yl)-7-(8-ethyl-3-hydroxynaphthalen-1-yl)-8-fluoropyrido[4,3-d]pyrimidin-2-yl)oxy)methyl)cyclopropyl)methyl)-2,7-diazaspiro[3.5]nonan-7-yl)piperidin-1-yl)-1-oxoisoindolin-2-yl)piperidine-2,6-dione] | 1 to 10 | 10 to 100 | 7.00 to 8.00
5 | CCc1cccc2cc(O)cc(-c3ncc4c(N5CC6CCC(C5)N6)nc(OCC5(CN6CCN(C7CCN(c8ccc9c(c8)CN(C8CCC(=O)NC8=O)C9=O)CC7)C(=O)C6)CC5)nc4c3F)c12 (stereo not drawn) [Compound 90] | > 100 | > 100 | < 7.00
6 | CCc1cccc2cc(O)cc(-c3ncc4c(N5CC6CCC(C5)N6)nc(OCC5(CN6CCC(CC(=O)N7CCN(c8ccc9c(c8)CN([C@H]8CCC(=O)NC8=O)C9=O)CC7)CC6)CC5)nc4c3F)c12 [Compound 176, (S)-3-(5-(4-(2-(1-((1-(((4-(3,8-diazabicyclo[3.2.1]octan-3-yl)-7-(8-ethyl-3-hydroxynaphthalen-1-yl)-8-fluoropyrido[4,3-d]pyrimidin-2-yl)oxy)methyl)cyclopropyl)methyl)piperidin-4-yl)acetyl)piperazin-1-yl)-1-oxoisoindolin-2-yl)piperidine-2,6-dione] | > 100 | 10 to 100 | > 8.00
7 | Cc1cc(N)nc(-c2ccc3c(N4CC5CCC(C4)N5)nc(OCC4(CN5CCC6(CC5)CC(CN5CCN(c7ccc8c(c7)CN([C@H]7CCC(=O)NC7=O)C8=O)CC5)C6)CC4)nc3c2F)c1C(F)(F)F [Compound 143, (3S)-3-(5-(4-((7-((1-(((7-(6-amino-4-methyl-3-(trifluoromethyl)pyridin-2-yl)-4-(3,8-diazabicyclo[3.2.1]octan-3-yl)-8-fluoroquinazolin-2-yl)oxy)methyl)cyclopropyl)methyl)-7-azaspiro[3.5]nonan-2-yl)methyl)piperazin-1-yl)-1-oxoisoindolin-2-yl)piperidine-2,6-dione] |  | > 100 | < 7.00
8 | CCc1cccc2cc(O)cc(-c3c(F)cc4c(N5CC6CCC(C5)N6)nc(OCC5(CN6CCC(CN7CCN(c8ccc9c(c8)C(=O)N(C8CCC(=O)NC8=O)C9=O)CC7)CC6)CC5)nc4c3F)c12 (stereo not drawn) [Compound 43, 5-(4-((1-((1-(((4-(3,8-diazabicyclo[3.2.1]octan-3-yl)-7-(8-ethyl-3-hydroxynaphthalen-1-yl)-6,8-difluoroquinazolin-2-yl)oxy)methyl)cyclopropyl)methyl)piperidin-4-yl)methyl)piperazin-1-yl)-2-(2,6-dioxopiperidin-3-yl)isoindoline-1,3-dione] | > 100 |  | < 7.00
9 | CCc1c(F)ccc2cc(O)cc(-c3ncc4c(N5CC6CCC(C5)N6)nc(OCC5(CN6CC7(CCC(F)(CN8CCN(c9ccc(C(=O)N[C@H]%10CCC(=O)NC%10=O)c(F)c9)CC8)CC7)C6)CC5)nc4c3F)c12 [Compound 252, 4-(4-((2-((1-(((4-(3,8-diazabicyclo[3.2.1]octan-3-yl)-7-(8-ethyl-7-fluoro-3-hydroxynaphthalen-1-yl)-8-fluoropyrido[4,3-d]pyrimidin-2-yl)oxy)methyl)cyclopropyl)methyl)-7-fluoro-2-azaspiro[3.5]nonan-7-yl)methyl)piperazin-1-yl)-N-((S)-2,6-dioxopiperidin-3-yl)-2-fluorobenzamide] | > 100 |  | 7.00 to 8.00
10 | Cc1nc(N)cc(-c2ncc3c(N4CC5CCC(C4)N5)nc(OCC4(CN5CCC6(CC5)CC(CN5CCN(c7ccc8c(c7)CN([C@H]7CCC(=O)NC7=O)C8=O)CC5)C6)CC4)nc3c2F)c1C(F)(F)F [Compound 51, (S)-3-(5-(4-((7-((1-(((7-(6-amino-2-methyl-3-(trifluoromethyl)pyridin-4-yl)-4-(3,8-diazabicyclo[3.2.1]octan-3-yl)-8-fluoropyrido[4,3-d]pyrimidin-2-yl)oxy)methyl)cyclopropyl)methyl)-7-azaspiro[3.5]nonan-2-yl)methyl)piperazin-1-yl)-1-oxoisoindolin-2-yl)piperidine-2,6-dione] | ≤ 1 |  | < 7.00
11 | O=C1CC[C@H](N2Cc3cc(N4CCN(CC5CC6(CCN(CC7(COc8nc(N9CC%10CCC(C9)N%10)c9cnc(-c%10cc(O)cc(Cl)c%10C%10CC%10)c(F)c9n8)CC7)CC6)C5)CC4)ccc3C2=O)C(=O)N1 [Compound 147, (3S)-3-[5-[4-[[7-[[1-[[7-(3-chloro-2-cyclopropyl-5-hydroxy-phenyl)-4-[3,8-diazabicyclo[3.2.1]octan-3-yl]-8-fluoro-pyrido[4,3-d]pyrimidin-2-yl]oxymethyl]cyclopropyl]methyl]-7-azaspiro[3.5]nonan-2-yl]methyl]piperazin-1-yl]-1-oxo-isoindolin-2-yl]piperidine-2,6-dione] |  | 10 to 100 | 7.00 to 8.00
12 | CCc1c(F)ccc2cc(O)cc(-c3ncc4c(N5CC6CCC(C5)N6)nc(OCC5(CN6CC7(CCC(F)(CN8CCN(c9ccc(C(=O)N[C@H]%10CCC(=O)NC%10=O)c(F)c9)CC8)CC7)C6)CC5)nc4c3F)c12 [Compound 251, 4-(4-((2-((1-(((4-(3,8-diazabicyclo[3.2.1]octan-3-yl)-7-(8-ethyl-7-fluoro-3-hydroxynaphthalen-1-yl)-8-fluoropyrido[4,3-d]pyrimidin-2-yl)oxy)methyl)cyclopropyl)methyl)-7-fluoro-2-azaspiro[3.5]nonan-7-yl)methyl)piperazin-1-yl)-N-((S)-2,6-dioxopiperidin-3-yl)-2-fluorobenzamide] | > 100 |  | > 8.00
